Laboratory results as given in US8293743B2, “Substituted imidazo[1,2-A]pyrazine derivatives as alpha-helix mimetics and method relating to the treatment of cancer stem cells” (Choongwae Pharma Corporation, priority 2005, dated 2012).
“Also recorded” adds a separate entry of the source. Values belong to the compound of their own block, whether it stands above or below them.

Key:
[1] = system: normal CD34+ cells; assay: Effect on normal CD34+ hematopoietic cells (cellularity, colony formation); type: cell-based
Source text: This is the result of the emergence of leukemic drug resistant clones associated with increased nuclear β-catenin levels, a hallmark of increased TCF/β-catenin transcription (Weissman NEJM 2003). […] In sharp contrast, the control colonies were large and compact.

[2] = target: T1, CBP-β-catenin (Homo sapiens, UniProt Q92793); assay: TOPFlash reporter system in SW480 cells (CBP-β-catenin binding); type: cell-based; settings: increasing concentrations
T1 construct: tested using the TOPFlash reporter system in SW480 cells; endogenous in cells; host or cells: SW480 cells
Experimental: The effect of several compounds on CBP-β-catenin binding was tested using the TOPFlash reporter system in SW480 cells.

[3] = system: A2780; assay: Colony inhibition assay, A2780; type: cell-based; settings: for Average plating efficiency: A2780, 80 cells/well
Experimental: (§1) Colony inhibition assays were performed, in which plated cells from A2780, CP70, IGROV-1 and B16 cells were exposed to doses of ICG-001 within the range of 0.625 to 10 μM. An exemplary experiment is illustrated in Table 3.
(§2) Table 4 presents data on the plating efficiencies of cultured cells from A2780, CP70, IGROV-1 and B16 in control wells as well as in wells exposed to ICG-001.
(§3) The cells were tested at range of concentrations of ICG-001 between 0.625 and 10 μM and at cisplatin concentrations between 1.25 to 20 μM. All three ovarian cancer lines tested (A2780, CP70 and IGROV-1) were more sensitive to ICG-001 than to cisplatin. […] The cisplatin-sensitive lines, IGROV-1 and A2780, had similar sensitivity to ICG-001 as to cisplatin (FIGS. 23A and B).

[4] = system: K562 imatinib resistant cells; assay: Cell proliferation/viability of K562 imatinib resistant cells, Imatinib mesylate +/- ICG-001; type: cell-based; settings: in combination with Imatinib mesylate
Experimental: (§4) MDR transporters are believed to play important roles in protecting cancer stem cells from chemotherapy (Dean et al, Nat. Rev. Cancer 5, 275, 2005). To further study this phenomenon, a series of experiments was performed.

[5] = system: IGROV-1/CP; assay: Colony inhibition assay, IGROV-1/CP; type: cell-based; settings: 80 cells/well
[6] = system: B16; assay: Colony inhibition assay, B16 melanoma; type: cell-based, mouse; settings: B16, 80 cells/well
Experimental: as §1, §2

[7] = system: MDR-1 promoter; assay: ChIP assay of coactivator occupancy of the MDR-1 promoter in MES-SA/Dx5 cells; type: cell-based, human
Source text: Similar ICG-001 induced p300 recruitment at the survivin promoter has been previously observed, which was associated with recruitment of proteins associated with transcriptional repression (i.e., HDAC6 and PML) (H Ma et al. Oncogene 2005). A proposed non-binding mechanism is repressive transcriptional apparatus recruitment to the MDR-1 promoter by p300.

[8] = system: MDR-1; assay: MDR-1/luciferase activity in isogenic HCT116 cell lines; type: cell-based
Source text: To further confirm the importance of the role of nuclear β-catenin in driving MDR-1 expression, isogenic HCT-116 cell lines were utilized (Waldmann 2002).
MDR-1 transcriptional regulation in the isogenic HCT116 cell lines was also investigated. […] Transfection of p300 decreased MDR-1/luciferase activity below control levels in all 3 cell lines (FIG. 17A).

[9] = system: CP70; assay: Colony inhibition assay, CP70; type: cell-based; settings: for Average plating efficiency: CP70, 80 cells/well
Experimental: as §1, §2, §3

[10] = system: caspase3/7; assay: Caspase3/7 activation in MES-SA/Dx5 cells; type: cell-based, human; settings: added to cells treated with 1 mg/ml or 5 mg/ml of Doxorubicin
Experimental: as §4

[11] = system: MDR-1; assay: MDR-1/luciferase reporter activity in MES-SA/Dx5 cells; type: cell-based, human; settings: read-out: IC50, reduction of MDR-1 luciferase activity
Source text: (§5) To investigate differential coactivator usage for the transcriptional regulation of the MDR-1 gene in MES-SA cells, the chemogenomic tool ICG-001 was used (Emami et al. 2004).

[12] = system: K562 cells; assay: Differentiation and caspase activation in K562 cells; type: cell-based
[13] = system: IGROV-1; assay: Colony inhibition assay, IGROV-1; type: cell-based; settings: IGROV-1, 80 cells/well
Experimental: as §1, §2, §3

[14] = system: MDR-1; assay: MDR-1 protein expression in MES-SA/Dx5 cells (immunofluorescence, immunoblotting); type: cell-based, human; settings: immunofluorescence and immunoblotting, dose dependent
Source text: as §5

[15] = system: CD34+ CML blasts; assay: Colony formation (CFU) of CD34+ blasts from bone marrow of CML patients; type: cell-based; settings: for total colony forming units (CFU): combination ICG-001 and imatinib vs control or either drug alone
[16] = system: MES-SA/Dx5 cells; assay: Cell proliferation/viability of MES-SA/Dx5 cells, Doxorubicin +/- ICG-001; type: cell-based, human; settings: in combination with Doxorubicin
Experimental: as §4

T1 sequence (Q92793 whole entry): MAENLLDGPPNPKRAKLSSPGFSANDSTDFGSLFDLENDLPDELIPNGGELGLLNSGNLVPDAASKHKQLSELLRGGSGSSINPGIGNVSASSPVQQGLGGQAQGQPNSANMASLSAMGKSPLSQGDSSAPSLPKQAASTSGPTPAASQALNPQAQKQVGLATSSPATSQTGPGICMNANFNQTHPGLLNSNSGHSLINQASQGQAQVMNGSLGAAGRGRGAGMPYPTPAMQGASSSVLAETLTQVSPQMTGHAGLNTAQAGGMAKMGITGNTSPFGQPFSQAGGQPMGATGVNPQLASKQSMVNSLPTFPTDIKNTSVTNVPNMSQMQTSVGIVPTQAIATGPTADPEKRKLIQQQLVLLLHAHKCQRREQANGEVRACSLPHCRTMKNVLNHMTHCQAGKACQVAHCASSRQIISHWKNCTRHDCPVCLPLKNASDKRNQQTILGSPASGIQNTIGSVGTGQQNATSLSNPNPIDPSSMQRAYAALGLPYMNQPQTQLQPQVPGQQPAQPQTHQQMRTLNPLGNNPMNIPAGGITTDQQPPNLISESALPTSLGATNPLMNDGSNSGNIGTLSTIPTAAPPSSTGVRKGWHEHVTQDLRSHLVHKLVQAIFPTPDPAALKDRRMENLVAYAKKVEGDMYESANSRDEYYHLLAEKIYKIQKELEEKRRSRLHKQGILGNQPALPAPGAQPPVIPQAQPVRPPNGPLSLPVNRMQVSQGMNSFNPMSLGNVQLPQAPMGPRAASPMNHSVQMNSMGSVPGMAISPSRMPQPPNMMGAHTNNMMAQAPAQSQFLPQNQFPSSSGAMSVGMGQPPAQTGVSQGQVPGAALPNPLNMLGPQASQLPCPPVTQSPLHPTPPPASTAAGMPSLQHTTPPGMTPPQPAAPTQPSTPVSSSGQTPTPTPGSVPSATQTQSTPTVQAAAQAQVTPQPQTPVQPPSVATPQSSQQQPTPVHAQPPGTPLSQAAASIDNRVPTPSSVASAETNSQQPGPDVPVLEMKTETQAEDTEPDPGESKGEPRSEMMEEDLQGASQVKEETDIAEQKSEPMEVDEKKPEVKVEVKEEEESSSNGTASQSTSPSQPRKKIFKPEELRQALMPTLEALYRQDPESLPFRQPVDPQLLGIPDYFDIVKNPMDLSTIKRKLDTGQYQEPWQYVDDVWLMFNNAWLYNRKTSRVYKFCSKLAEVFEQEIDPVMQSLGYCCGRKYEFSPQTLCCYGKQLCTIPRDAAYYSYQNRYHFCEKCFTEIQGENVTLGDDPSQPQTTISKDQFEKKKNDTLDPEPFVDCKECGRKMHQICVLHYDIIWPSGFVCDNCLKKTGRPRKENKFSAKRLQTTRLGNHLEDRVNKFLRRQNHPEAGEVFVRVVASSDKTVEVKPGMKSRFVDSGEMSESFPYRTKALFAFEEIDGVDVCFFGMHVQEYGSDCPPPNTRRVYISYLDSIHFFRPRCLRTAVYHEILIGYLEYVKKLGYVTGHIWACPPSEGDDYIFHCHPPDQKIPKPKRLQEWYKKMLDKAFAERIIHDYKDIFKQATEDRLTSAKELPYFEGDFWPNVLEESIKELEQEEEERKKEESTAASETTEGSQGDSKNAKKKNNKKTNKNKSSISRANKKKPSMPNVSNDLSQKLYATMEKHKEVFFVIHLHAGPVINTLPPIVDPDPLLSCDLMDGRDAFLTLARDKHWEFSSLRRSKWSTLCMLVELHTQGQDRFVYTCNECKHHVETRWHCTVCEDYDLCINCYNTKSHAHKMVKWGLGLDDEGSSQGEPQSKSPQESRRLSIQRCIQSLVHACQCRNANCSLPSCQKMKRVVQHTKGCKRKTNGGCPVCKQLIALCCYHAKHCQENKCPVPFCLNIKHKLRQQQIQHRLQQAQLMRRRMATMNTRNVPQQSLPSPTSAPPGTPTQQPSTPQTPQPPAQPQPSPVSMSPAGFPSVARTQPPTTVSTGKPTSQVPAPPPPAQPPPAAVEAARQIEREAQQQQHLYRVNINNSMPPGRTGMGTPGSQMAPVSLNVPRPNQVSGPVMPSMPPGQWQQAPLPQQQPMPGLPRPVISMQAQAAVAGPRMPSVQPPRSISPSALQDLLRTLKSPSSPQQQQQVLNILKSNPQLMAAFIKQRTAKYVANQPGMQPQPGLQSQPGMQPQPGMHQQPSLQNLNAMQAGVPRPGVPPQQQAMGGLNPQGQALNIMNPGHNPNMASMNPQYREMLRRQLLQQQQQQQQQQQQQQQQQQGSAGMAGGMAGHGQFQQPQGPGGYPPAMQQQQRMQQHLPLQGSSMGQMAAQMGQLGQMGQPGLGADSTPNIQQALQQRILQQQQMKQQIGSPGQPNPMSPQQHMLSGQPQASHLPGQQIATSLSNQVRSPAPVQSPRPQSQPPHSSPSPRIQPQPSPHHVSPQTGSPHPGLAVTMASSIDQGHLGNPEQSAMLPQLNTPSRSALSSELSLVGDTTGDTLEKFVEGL

- colony formation of normal CD34+ hematopoietic cells [1]: did not affect colony formation
- total cellularity, CFU-Es and BFU-Es [1]: minimal effects
- effect on CBP-β-catenin binding (TOPFlash reporter) ([2]; listed as ICG-100): inhibited
- IC50 [11]: ~16 µM
Structure (SMILES): O=C1[C@H](Cc2ccc(O)cc2)N2C(=O)CCN(C(=O)NCc3ccccc3)[C@H]2CN1Cc1cccc2ccccc12 [ICG-001]
- adverse effects on normal CD34+ cells ([1]; up to 20 μM): did not have significant adverse effects
- COLONIES (n = 4) M +/− SD ([3]; 0.625 μM ICG-001): 74 +/− 4.7
- COLONIES (n = 4) M +/− SD ([3]; 1.25 μM ICG-001): 28 +/− 13.2
- COLONIES (n = 4) M +/− SD ([3]; 2.5 μM ICG-001): 0.25 +/− 0.5
- COLONIES (n = 4) M +/− SD ([3]; 5 μM ICG-001): 0
- COLONIES (n = 4) M +/− SD ([3]; 10 μM ICG-001): 0
- Average plating efficiency ([3]; 0.625 μM): 25%
- Average plating efficiency ([3]; 1.25 μM): 35%
- Average plating efficiency ([3]; 2.5 μM): 6%
- Average plating efficiency ([3]; 5 μM): 0%
- Average plating efficiency ([3]; 10 μM): 0%
- decrease of cell proliferation/viability, combination vs either agent alone [4]: significantly more effective
- Average plating efficiency ([5]; 0.625 μM): 59%
- Average plating efficiency ([5]; 1.25 μM): 25%
- Average plating efficiency ([5]; 2.5 μM): 13%
- Average plating efficiency ([5]; 5 μM): 6%
- Average plating efficiency ([5]; 10 μM): 0%
- Average plating efficiency ([6]; 0.625 μM): 24%
- Average plating efficiency ([6]; 1.25 μM): 18%
- Average plating efficiency ([6]; 2.5 μM): 3%
- Average plating efficiency ([6]; 5 μM): 0%
- Average plating efficiency ([6]; 10 μM): 0%
- occupancy of the MDR-1 promoter by CBP [7]: blocked in a dose dependent fashion
- occupancy of the MDR-1 promoter by p300 ([7]; 25 uM ICG-001): occupancy increased
- MDR-1/luciferase activity ([8]; HCT-116 wild type): dose dependently decreased
- MDR-1/luciferase activity ([8]; Hβ18(ko/*) cell line): dose dependently decreased
- MDR-1/luciferase activity ([8]; Hβ92(wt/ko) cells): essentially no further reduction below basal levels
- Average plating efficiency ([9]; 0.625 μM): 35%
- Average plating efficiency ([9]; 1.25 μM): 35%
- Average plating efficiency ([9]; 2.5 μM): 13%
- Average plating efficiency ([9]; 5 μM): 1%
- Average plating efficiency ([9]; 10 μM): 0%
- inhibition ([9]; cisplatin-resistant line CP70, 5 μM): > 90%
- caspase3/7 activation [10]: increased caspase3/7 activation significantly
- caspase activation [12]: not capase activation
- differentiation [12]: induced differentiation
- Average plating efficiency ([13]; 0.625 μM): 31%
- Average plating efficiency ([13]; 1.25 μM): 24%
- Average plating efficiency ([13]; 2.5 μM): 8%
- Average plating efficiency ([13]; 5 μM): 1%
- Average plating efficiency ([13]; 10 μM): 0%
- level of MDR-1 protein expression [14]: significantly reduced
- total colony forming units (CFU) [15]: most significant reduction
- total colony forming units (CFU) ([15]; listed as IGC-001): significant additive effect
- decrease of cell proliferation/viability, combination vs either agent alone [16]: significantly more effective

- effect on CBP-β-catenin binding (TOPFlash reporter) [2]: effective; also recorded: inhibited
Structure (SMILES): O=C1[C@H](Cc2ccc(O)cc2)N2C(=O)CCN(C(=O)NCc3ccccc3)[C@H]2CN1Cc1cccc2ccccc12 [PRI-004]
- colony formation ([15]; 500 nM, FIG. 21C legend): completely blocks colony formation
